Source: ChEMBL document CHEMBL1201862, “PubChem BioAssay data set” (2004)
“And” between values parts separate entries of the source, which are not always exact repeats. Equal entries are not always repeated. Structures can show the parent of a compound that is named as a salt.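 Method: 48-hour compound exposure of cells in 96-well plates, five concentrations, linear interpolation of endpoints. GI50: concentration for 50% inhibition of growth.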 The source made the active and inactive calls. Rule as the data show it: active = GI50 up to about 1.1 µM and inactive = higher.

Columns and labels:
Experiment in all cases: DTP human tumour cell line panel, 48 h
[1] = tested on: ACHN
[2] = tested on: BT-549
[3] = tested on: HCC 2998
[4] = tested on: HCT-116
[5] = tested on: HT-29
[6] = tested on: Hs-578T
[7] = tested on: MDA-MB-231
[8] = tested on: MDA-N
[9] = tested on: MOLT-4
[10] = tested on: NCI-H226
[11] = tested on: NCI-H522
[12] = tested on: NCI/ADR-RES
[13] = tested on: PC-3
[14] = tested on: SK-MEL-28
[15] = tested on: SNB-19
[16] = tested on: SNB-75
[17] = tested on: SR
[18] = tested on: T47D
[19] = tested on: IGROV-1
[20] = tested on: SK-MEL-5

Measured: GI50

Cc1nc(N)c(N2CCN(CN)CC2)c(O)n1
inactive: [1] > 100 µM | [2] > 100 µM | [3] > 100 µM | [4] > 100 µM | [5] > 100 µM | [6] > 100 µM | [7] > 100 µM | [8] > 100 µM | [9] > 100 µM | [10] > 100 µM | [11] > 100 µM | [12] > 100 µM | [13] > 100 µM | [14] > 100 µM | [15] > 100 µM | [16] > 100 µM | [17] > 100 µM | [18] > 100 µM

COC(=O)[C@H](Cc1ccccc1)NC(=O)c1ccc(CNC(=O)/C=C/c2cccc(Oc3ccccc3)c2)cc1
inactive: [1] 16.4 µM | [2] > 100 µM | [3] 35.4 µM | [4] 37 µM | [5] 61.8 µM | [6] 10.4 µM | [19] 7.31 µM | [7] 18.7 µM | [8] 4.16 µM | [9] 9.71 µM | [10] 52.7 µM | [12] 31.3 µM | [13] 29.4 µM | [14] 9.33 µM | [20] 16.3 µM | [15] 28 µM | [16] 34.8 µM | [17] 6.79 µM | [18] 56 µM

Cc1ccc(O)c(-c2cc(-c3cccc(Br)c3)c(C#N)c(N)n2)c1
inactive: [1] 18.2 µM | [2] 37.2 µM | [3] 23.3 µM | [4] 20 µM | [5] 23.9 µM | [6] 25.5 µM | [19] 11.7 µM | [7] 20.4 µM | [8] 24.1 µM | [9] 20.1 µM | [10] 17.5 µM | [11] 18.9 µM | [12] 45.9 µM | [13] 17.7 µM | [20] 19.2 µM | [15] 19.3 µM | [17] 19.3 µM | [18] 17.7 µM

c1cc(-c2ccsc2-c2ccsc2)cs1
inactive: [1] > 100 µM | [2] 81.1 µM | [3] 46.8 µM | [4] 52.1 µM | [5] > 100 µM | [6] 59.3 µM | [19] > 79.3 µM | [7] > 100 µM | [8] 41.3 µM | [9] 25.2 µM | [11] 26.1 µM | [12] > 100 µM | [13] > 100 µM | [14] > 100 µM | [20] 71.1 µM | [15] > 100 µM | [16] 44.5 µM | [17] 16.3 µM | [18] 58.1 µM

CCCCCCCSCC(O)COC(c1ccccc1)(c1ccccc1)c1ccccc1 (stereo not given)
inactive: [1] 25.5 µM | [2] 73.1 µM | [3] 19.4 µM | [4] 40.6 µM | [5] 19.7 µM | [6] 3.52 µM | [19] > 100 µM | [7] > 100 µM | [8] 40.9 µM | [9] 28.4 µM | [10] 18.1 µM | [11] 35.2 µM | [12] 72.1 µM | [13] 29.3 µM | [14] > 100 µM | [20] 23.6 µM | [15] 76.6 µM | [17] 22.1 µM | [18] 32.7 µM

Cc1cc2ccc(OC(=O)c3ccc(NC(=N)N)cc3)cc2oc1=O
inactive: [1] > 100 µM | [2] 26.3 µM | [4] 24.1 µM | [5] 26.6 µM | [6] 25.9 µM | [19] 55 µM | [7] 22 µM | [8] 29.2 µM | [9] 22.9 µM | [10] 26.4 µM | [11] 18.3 µM | [12] > 100 µM | [13] 28.6 µM | [14] 24 µM | [20] 43.8 µM | [15] 22.2 µM | [16] 23.3 µM | [17] 22.5 µM | [18] 26.8 µM

COP(=O)(/C=C/c1cc(C(=O)OCc2ccccc2)n(S(=O)(=O)c2ccccc2)c1)OC
inactive: [1] > 100 µM | [2] > 100 µM | [3] > 100 µM | [4] > 100 µM | [5] > 100 µM | [6] > 100 µM | [19] > 100 µM | [7] > 100 µM | [8] > 100 µM | [9] > 100 µM | [11] > 100 µM | [12] > 100 µM | [13] > 100 µM | [14] > 100 µM | [20] > 100 µM | [15] > 100 µM | [16] 57.1 µM | [17] > 10 µM | [18] > 100 µM

N/N=C(\C(=O)Nc1ccc(Cl)cc1Cl)C(c1cnc2ccccc2n1)[N+](=O)[O-] (stereo not given)
inactive: [1] 71.1 µM | [2] > 100 µM | [3] > 100 µM | [4] 26.7 µM | [5] > 100 µM | [6] > 100 µM | [19] 8.47 µM | [7] > 100 µM | [8] > 100 µM | [10] > 100 µM | [11] > 100 µM | [12] > 100 µM | [13] > 100 µM | [14] > 100 µM | [20] > 100 µM | [16] > 100 µM | [17] > 10 µM | [18] > 100 µM

CN(C)CCCN1c2ccccc2Sc2ccc(C(F)(F)F)cc21 [TRIFLUPROMAZINE HYDROCHLORIDE]
inactive: [1] 14.9 µM and 15.4 µM | [2] 12.8 µM | [4] 14.2 µM and 14.4 µM | [5] 11.4 µM | [6] 14.1 µM | [19] 15.9 µM and 15.6 µM | [7] 12.9 µM | [8] 13.4 µM | [9] 17.7 µM | [11] 17.9 µM and 18.1 µM | [12] 17.2 µM | [13] 15.2 µM | [14] 16.3 µM and 14.8 µM | [20] 17.4 µM | [15] 16.6 µM and 15 µM | [16] 12.1 µM and 12.2 µM | [17] 18.1 µM and 17.6 µM | [18] 14.6 µM

O=C(Cn1c(C(=O)/C=C/c2ccc(Cl)cc2)nc2ccccc21)c1ccc(Cl)cc1
inactive: [1] 20.7 µM | [2] 24.5 µM | [3] 14.4 µM | [4] 10.9 µM | [5] 15 µM | [6] 10.9 µM | [19] 16.7 µM | [7] 19.9 µM | [8] 20.7 µM | [9] 2.26 µM | [10] 21.4 µM | [12] 20.5 µM | [13] 22.5 µM | [14] 21.7 µM | [20] 14.8 µM | [15] 20.7 µM | [17] 4.25 µM | [18] 28.6 µM
